Data taken from patent US20230183237A1, “COMPETITIVE AND NONCOMPETITIVE INHIBITORS OF THE MUSCARINIC ACETYLCHOLINE RECEPTOR M5” (Vanderbilt University, priority 2020, published 2023).
Read-outs that look alike come from different tables or passages of the source.

Molecular target: T1, hM5 (Homo sapiens, UniProt P08912)
T1 construct: expressed in transfected cells
T1 sequence (P08912 1-532): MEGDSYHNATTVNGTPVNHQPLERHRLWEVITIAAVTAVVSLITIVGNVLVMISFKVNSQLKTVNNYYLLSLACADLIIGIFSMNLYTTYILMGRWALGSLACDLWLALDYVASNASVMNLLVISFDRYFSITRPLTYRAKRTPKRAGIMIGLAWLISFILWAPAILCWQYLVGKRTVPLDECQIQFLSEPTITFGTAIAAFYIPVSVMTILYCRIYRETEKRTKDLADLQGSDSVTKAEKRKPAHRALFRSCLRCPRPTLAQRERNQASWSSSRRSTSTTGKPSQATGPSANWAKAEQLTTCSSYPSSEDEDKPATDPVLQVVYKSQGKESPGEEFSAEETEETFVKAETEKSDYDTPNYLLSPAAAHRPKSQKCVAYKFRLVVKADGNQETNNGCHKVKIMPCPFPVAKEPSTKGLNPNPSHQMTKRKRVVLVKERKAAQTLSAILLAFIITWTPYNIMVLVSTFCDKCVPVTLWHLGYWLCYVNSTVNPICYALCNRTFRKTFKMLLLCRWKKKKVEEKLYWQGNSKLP
Test: Calcium mobilization concentration-response (IC50 vs EC80 acetylcholine), CHO hM5
Format: cell-based
Conditions: CELL LINE hM5, read-out: IC50
Method in brief: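 IC50 values derive from percent maximal acetylcholine response after an EC80 ACh addition, measured as kinetic calcium fluorescence (static ratio, max−min). Test compounds were added 140 s before agonist. Cells: stable hM5-CHO in HEPES-buffered HBSS with 2.5 mM probenecid, pH 7.4; ≥3 independent triplicate determinations.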

[1] = calcium mobilization, EC80 acetylcholine addition

| Structure (SMILES) | IC50 [1] | IC50 (vs EC80 acetylcholine) |
| --- | --- | --- |
| Cc1cc2ncnn2cc1C1CCN(S(=O)(=O)c2ccc3c(c2)N(C)CCO3)CC1 [Compound 121, 4-methyl-6-((4-(7-methyl-[1,2,4]triazolo[1,5-a]pyridin-6-yl)piperidin-1-yl)sulfonyl)-3,4-dihydro-2H-benzo[b][1,4]oxazine] | 343 nM | – |
| Cn1ncc(S(=O)(=O)N2CCC(c3cn4ncnc4cc3F)CC2)c1C#N [Compound 402, 4-((4-(7-fluoro-[1,2,4]triazolo[1,5-a]pyridin-6-yl)piperidin-1-yl)sulfonyl)-1-methyl-1H-pyrazole-5-carbonitrile] | – | 85 nM |
| Cc1nn(C)cc1S(=O)(=O)N1CCC(c2cc3cc[nH]c3cn2)CC1 [Compound 95, 5-(1-((1,3-dimethyl-1H-pyrazol-4-yl)sulfonyl)piperidin-4-yl)-1H-pyrrolo[2,3-c]pyridine] | > 10000 nM | – |
| CCc1cc2ncnn2cc1C1CCN(S(=O)(=O)c2cnn(C)c2CC#N)CC1 [Compound 408, 2-(4-((4-(7-ethyl-[1,2,4]triazolo[1,5-a]pyridin-6-yl)piperidin-1-yl)sulfonyl)-1-methyl-1H-pyrazol-5-yl)acetonitrile] | – | 636 nM |
| Cc1sc(C#N)nc1C1=CCN(S(=O)(=O)c2ccc3c(c2)CCO3)CC1 [Compound 205, 4-(1-((2,3-dihydrobenzofuran-5-yl)sulfonyl)-1,2,3,6-tetrahydropyridin-4-yl)-5-methylthiazole-2-carbonitrile] | > 10000 nM | – |
| Cc1cc2ncnn2cc1C1CCN(S(=O)(=O)c2cnc3c(c2)CCO3)CC1 [Compound 141, 5-((4-(7-methyl-[1,2,4]triazolo[1,5-a]pyridin-6-yl)piperidin-1-yl)sulfonyl)-2,3-dihydrofuro[2,3-b]pyridine] | 1400 nM | – |
| Cc1cc2nccn2cc1C1CCN(S(=O)(=O)c2ccc3c(c2)CCO3)CC1 [Compound 66, 6-(1-((2,3-dihydrobenzofuran-5-yl)sulfonyl)piperidin-4-yl)-7-methylimidazo[1,2-a]pyridine] | 1300 nM | – |
| Cc1c(S(=O)(=O)N2CCC(c3cn4ncnc4cc3OC(F)(F)F)CC2)cnn1C [Compound 378, 6-(1-((1,5-dimethyl-1H-pyrazol-4-yl)sulfonyl)piperidin-4-yl)-7-(trifluoromethoxyl)-[1,2,4]triazolo[1,5-a]pyridine] | 8150 nM | – |
| Cc1cc2ncnn2cc1C1(F)CCN(S(=O)(=O)c2cnn3cccnc23)CC1 [Compound 458, 6-(4-fluoro-1-(pyrazolo[1,5-a]pyrimidin-3-ylsulfonyl)piperidin-4-yl)-7-methyl-[1,2,4]triazolo[1,5-a]pyridine] | – | 754 nM |
| O=S(=O)(c1cnn2ccccc12)N1CCC(c2cn3ncnc3cc2C(F)F)CC1 [Compound 510, 7-(difluoromethyl)-6-(1-(pyrazolo[1,5-a]pyridin-3-ylsulfonyl)piperidin-4-yl)-[1,2,4]triazolo[1,5-a]pyridine] | – | 60 nM |
| O=S(=O)(c1ccc2ncsc2c1)N1CCC(c2cn3ncnc3cc2F)CC1 [Compound 107, 6-((4-(7-fluoro-[1,2,4]triazolo[1,5-a]pyridin-6-yl)piperidin-1-yl)sulfonyl)benzo[d]thiazole] | > 10000 nM | – |
| Cc1nc2cc(C)c(C3CCN(S(=O)(=O)c4ccc5c(c4)C(C)CO5)CC3)cn2n1 (centres unmarked) [Compound 89, 2,7-dimethyl-6-(1-((3-methyl-2,3-dihydrobenzofuran-5-yl)sulfonyl)piperidin-4-yl)-[1,2,4]triazolo[1,5-a]pyridine] | 2100 nM | – |
| CCc1cc2ncnn2cc1C1CCN(S(=O)(=O)c2nncn2C)CC1 [Compound 514, 7-ethyl-6-(1-((4-methyl-4H-1,2,4-triazol-3-yl)sulfonyl)piperidin-4-yl)-[1,2,4]triazolo[1,5-a]pyridine] | – | > 10000 nM |
| O=S(=O)(c1ccc2c(c1)CCO2)N1CC=C(c2cc3ncnn3cc2Cl)CC1 [Compound 140, 6-chloro-7-(1-((2,3-dihydrobenzofuran-5-yl)sulfonyl)-1,2,3,6-tetrahydropyridin-4-yl)-[1,2,4]triazolo[1,5-a]pyridine] | > 10000 nM | – |
| Cc1cc2ncccc2cc1C1CCN(S(=O)(=O)c2c(Cl)nc3sccn23)CC1 [Compound 451, 6-chloro-5-((4-(7-methylquinolin-6-yl)piperidin-1-yl)sulfonyl)imidazo[2,1-b]thiazole] | – | 619 nM |

The remaining lines, values ahead:

| IC50 [1] | IC50 (vs EC80 acetylcholine) | Structure (SMILES) |
| --- | --- | --- |
| 3800 nM | – | Cc1nc(C(F)(F)F)c(S(=O)(=O)N2CCC(c3cn4ncnc4cc3C)CC2)s1 [Compound 129, 2-methyl-5-((4-(7-methyl-[1,2,4]triazolo[1,5-a]pyridin-6-yl)piperidin-1-yl)sulfonyl)-4-(trifluoromethyl)thiazole] |
| – | 10 nM | [2H]C1([2H])CC(c2cn3ncnc3cc2C)CC([2H])([2H])N1S(=O)(=O)c1cnn(C)c1C#N [Compound 547, 1-methyl-4-((4-(7-methyl-[1,2,4]triazolo[1,5-a]pyridin-6-yl)piperidin-1-yl-2,2,6,6-d4)sulfonyl)-1H-pyrazole-5-carbonitrile] |
| > 10000 nM | – | Cn1ccc(-c2cc3ncnn3cc2C2CCN(S(=O)(=O)c3cnn4c3CCCC4)CC2)n1 [Compound 333, 7-(1-methyl-1H-pyrazol-3yl)-6-(1-((4,5,6,7-tetrahydropyrazolo[1,5-a]pyridin-3-yl)sulfonyl)piperidin-4-yl)-[1,2,4]triazolo[1,5-a]pyridine] |
| > 10000 nM | – | Cc1nc2[nH]ccc2nc1C1CCN(S(=O)(=O)c2ccc3ncsc3c2)CC1 [Compound 16, 6-((4-(3-methyl-5H-pyrrolo[2,3-b]pyrazin-2-yl)piperidin-1-yl)sulfonyl)benzo[d]thiazole] |
| – | 63 nM | Cc1c(S(=O)(=O)N2CCC(c3cn4ncnc4cc3C(F)F)CC2)cnn1C [Compound 455, 7-(difluoromethyl)-6-(1-((1,5-dimethyl-1H-pyrazol-4-yl)sulfonyl)piperidin-4-yl)-[1,2,4]triazolo[1,5-a]pyridine] |
| 39 nM | – | Cc1cc2ncnn2cc1C1CCN(S(=O)(=O)c2cc3c(cc2C)OCC3C)CC1 (centres unmarked) [Compound 100, 6-(1-((3,6-dimethyl-2,3-dihydrobenzofuran-5-yl)sulfonyl)piperidin-4-yl)-7-methyl-[1,2,4]triazolo[1,5-a]pyridine] |
| > 10000 nM | – | COc1cc(C2CCN(S(=O)(=O)c3ccc4c(c3)CCO4)CC2)cn2ncnc12 [Compound 114, 6-(1-((2,3-dihydrobenzofuran-5-yl)sulfonyl)piperidin-4-yl)-8-methoxy-[1,2,4]triazolo[1,5-a]pyridine] |
| > 10000 nM | – | O=S(=O)(c1ccc2c(c1)CCO2)N1CC=C(c2cc3c(cc2Cl)OCO3)CC1 [Compound 352, 4-(6-chlorobenzo[d][1,3]dioxol-5-yl)-1-((2,3-dihydrobenzofuran-5-yl)sulfonyl)-1,2,3,6-tetrahydropyridine] |
| 60 nM | – | Cc1cc2ncnn2nc1C1CCN(S(=O)(=O)c2cnn(C)c2C)CC1 [Compound 165, 6-(1-((1,5-dimethyl-1H-pyrazol-4-yl)sulfonyl)piperidin-4-yl)-7-methyl-[1,2,4]triazolo[1,5-b]pyridazine] |
| – | 29 nM | [2H]C1([2H])CC(c2cn3ncnc3cc2Cl)CC([2H])([2H])N1S(=O)(=O)c1cn(C)nn1 [Compound 579, 7-chloro-6-(1-((1-methyl-1H-1,2,3-triazol-4-yl)sulfonyl)piperidin-4-yl-2,2,6,6-d4)-[1,2,4]triazolo[1,5-a]pyridine] |
| 2700 nM | – | Cc1cc2ncnn2cc1C1=CCN(S(=O)(=O)c2cc3c(cc2F)OCC3)CC1 [Compound 46, 6-(1-((6-fluoro-2,3-dihydrobenzofuran-5-yl)sulfonyl)-1,2,3,6-tetrahydropyridin-4-yl)-7-methyl-[1,2,4]triazolo[1,5-a]pyridine] |
| 5900 nM | – | Cc1cc2ncnn2nc1C1CCN(S(=O)(=O)c2ccc3c(c2)CCO3)CC1 [Compound 164, 6-(1-((2,3-dihydrobenzofuran-5-yl)sulfonyl)piperidin-4-yl)-7-methyl-[1,2,4]triazolo[1,5-b]pyridazine] |
| – | 15 nM | Cc1cc2ncccc2cc1C1CCN(S(=O)(=O)c2cnn3c2CCC3)CC1 [Compound 444, 6-(1-((5,6-dihydro-pyrrolo[1,2-b]pyrazol-3-yl)sulfonyl)piperidin-4-yl)-7-methylquinoline] |
| 15 nM | – | Cc1nn(C)c(Cl)c1S(=O)(=O)N1CCC(c2cn3ncnc3c(F)c2C)CC1 [Compound 318, 6-(1-((5-chloro-1,3-dimethyl-1H-pyrazol-4-yl)sulfonyl)piperidin-4-yl)-8-fluoro-7-methyl-[1,2,4]triazolo[1,5-a]pyridine] |
| > 10000 nM | – | Cc1cc2ncnn2cc1C1=CCN(S(=O)(=O)c2ccc3c(c2)C(C)(C)CO3)CC1 [Compound 64, 6-(1-((3,3-dimethyl-2,3-dihydrobenzofuran-5-yl)sulfonyl)-1,2,3,6-tetrahydropyridin-4-yl)-7-methyl-[1,2,4]triazolo[1,5-a]pyridine] |
| – | 46 nM | Cc1cc(S(=O)(=O)N2CCC(c3cn4ncnc4cc3C(F)(F)F)CC2)sn1 [Compound 495, 3-methyl-5-((4-(7-(trifluoromethyl)-[1,2,4]triazolo[1,5-a]pyridin-6-yl)piperidin-1-yl)sulfonyl)isothiazole] |
| – | 1950 nM | Cc1cc2ncccc2cc1C1CCN(S(=O)(=O)c2c(C)nn(C)c2C(F)(F)F)CC1 [Compound 445, 6(1-((1,3-dimethyl-5-(trifluoromethyl)-1H-pyrazol-4-yl)sulfonyl)piperidin-4-yl)-7-methylquinoline] |
